Source: US7704533B2, “Compositions and methods of inducing hair growth utilizing Continus coggygria” (J&J Consumer Companies, Inc., priority 2006, dated 2010)

Key:
C3H mice = assay: Hair growth induction in C3H mice (mice entering anagen); type: in vivo
Text: C3H female mice age 6-7 weeks of age were purchased from Taconic Farms (Germantown, N.Y.). Mice were housed in appropriately sized cages in an environmentally controlled room with a 12-hour light-12-hour dark photoperiod and supplied with food and water ad libitum. Animal care was based on the “Guide for the Care and Use of Laboratory Animals”, NIH Publication No. 85-23. Animals were acclimated for a week before study starts. Once all mice entered their prolonged telogen/resting phase (about 50-60 days long) of the hair cycle, they were clipped over the dorsal area about 1.5×5 cm (Wahl Clippers 8900 Series, Blade # 1086). Seven female mice per group were clipped while sedated with 2% induction and maintenance isoflurane and 0.5 L Oxygen. In addition to the 150 mg/ml Cotinus coggygria formulation, the treatment groups included a placebo, 5% Minoxidil as positive control and an untreated group to serve as control for natural hair growth initiation and to observe placebo effects. 200 μl of test materials were applied topically to the area daily, 5 days a week. Images were taken at the first signs of anagen/active growth phase and when needed based on visual observation. Skin samples were obtained for histological analysis at week 3 and a study log documenting day-to-day observations of mice entering anagen (grey skin, the first visual clue to a new hair growth) were recorded. Treatments continued for up to 6 weeks. […] C3H mice were treated as described in Example 3. In addition to the 150 mg/ml Cotinus coggygria formulation prepared as a concentrate via heat processing, a lyophilized Cotinus extract powder was prepared as described above, as well as lower (60 mg/ml, 90 mg/ml, 120 mg/ml) and higher concentrations (up to 210 mg/ml) of Cotinus coggygria extracts (Table III). The treatment groups included a placebo, 5% minoxidil as positive control and an untreated group to serve as control for natural hair growth initiation and to observe placebo effects. 200 ul of test materials were applied topically to the area daily, 5 days a week. Images were taken at the first signs of anagen/active growth phase and when needed based on visual observation. Skin samples were obtained for histological analysis and a study log documenting day-to-day observations of mice entering anagen (grey skin) were recorded. Treatments continued for up to 6 weeks. […] Moreover, a dose-dependent increase in dorsal hair coverage was observed visually and documented by images, and also confirmed by histological analysis. […] C3H female mice clipped over the dorsal area once they have entered their prolonged telogen phase (about 8 weeks long) were topically treated once daily for 6 weeks with 200 μl 150 mg/ml of Cotinus coggygria extract or with 5% Minoxidil or with the combination of both agents. […] C3H hair growth studies were performed as described in earlier examples, with the addition of formulation agents to the cotinus extract preparation.

[1] = tested on: postmenopausal women with androgenetic alopecia; details: one-year trial; cited from earlier work

Nc1cc(N2CCCCC2)nc(N)[n+]1[O-] [5% Minoxidil, Minoxidil]
% of mice entering anagen (C3H mice; Table II, day 9 of study, listed as Ave 5% Minoxidil): 7%
% of mice entering anagen (C3H mice; Table II, day 9 of study, listed as Best 5% Minoxidil): 20%
% of mice entering anagen (C3H mice; Table II, day 10 of study, listed as Ave 5% Minoxidil): 18%
% of mice entering anagen (C3H mice; Table II, day 10 of study, listed as Best 5% Minoxidil): 40%
% of mice entering anagen (C3H mice; Table II, day 13 of study, listed as Ave 5% Minoxidil): 18%
% of mice entering anagen (C3H mice; Table II, day 13 of study, listed as Best 5% Minoxidil): 40%
% of mice entering anagen (C3H mice; Table II, day 14 of study, listed as Ave 5% Minoxidil): 31%
% of mice entering anagen (C3H mice; Table II, day 14 of study, listed as Best 5% Minoxidil): 80%
% of mice entering anagen (C3H mice; Table II, day 16 of study, listed as Ave 5% Minoxidil): 31%
% of mice entering anagen (C3H mice; Table II, day 16 of study, listed as Best 5% Minoxidil): 80%
% of mice entering anagen (C3H mice; Table II, day 20 of study, listed as Ave 5% Minoxidil): 32%
% of mice entering anagen (C3H mice; Table II, day 20 of study, listed as Best 5% Minoxidil): 80%
% of mice entering anagen (C3H mice; Table II, day 22 of study, listed as Ave 5% Minoxidil): 41%
% of mice entering anagen (C3H mice; Table II, day 22 of study, listed as Best 5% Minoxidil): 80%
% of mice entering anagen (C3H mice; Table II, day 23 of study, listed as Ave 5% Minoxidil): 38%
% of mice entering anagen (C3H mice; Table II, day 23 of study, listed as Best 5% Minoxidil): 80%
% of mice entering anagen (C3H mice; Table II, day 24 of study, listed as Ave 5% Minoxidil): 36%
% of mice entering anagen (C3H mice; Table II, day 24 of study, listed as Best 5% Minoxidil): 75%
% of mice entering anagen (C3H mice; Table II, day 27 of study, listed as Ave 5% Minoxidil): 36%
% of mice entering anagen (C3H mice; Table II, day 27 of study, listed as Best 5% Minoxidil): 75%
% of mice entering anagen (C3H mice; Table II, day 29 of study, listed as Ave 5% Minoxidil): 36%
% of mice entering anagen (C3H mice; Table II, day 29 of study, listed as Best 5% Minoxidil): 100%
% of mice entering anagen (C3H mice; Table II, day 31 of study, listed as Ave 5% Minoxidil): 45%
% of mice entering anagen (C3H mice; Table II, day 31 of study, listed as Best 5% Minoxidil): 100%
% of mice entering anagen (C3H mice; Table II, day 35 of study, listed as Ave 5% Minoxidil): 48%
% of mice entering anagen (C3H mice; Table II, day 35 of study, listed as Best 5% Minoxidil): 100%
% of mice entering anagen (C3H mice; Table II, day 42 of study, listed as Ave 5% Minoxidil): 63%
% of mice entering anagen (C3H mice; Table II, day 42 of study, listed as Best 5% Minoxidil): 100%
% of mice entering anagen (C3H mice; Table II, day 43 of study, listed as Ave 5% Minoxidil): 87%
% of mice entering anagen (C3H mice; Table II, day 43 of study, listed as Best 5% Minoxidil): 100%
% of mice entering anagen (C3H mice; Table II, day 44 of study, listed as Ave 5% Minoxidil): 93%
% of mice entering anagen (C3H mice; Table II, day 44 of study, listed as Best 5% Minoxidil): 100%
% of mice entering anagen (C3H mice; Table III, day 8 of study): 0%
% of mice entering anagen (C3H mice; Table III, day 9 of study): 0%
% of mice entering anagen (C3H mice; Table III, day 10 of study): 14%
% of mice entering anagen (C3H mice; Table III, day 11 of study): 43%
% of mice entering anagen (C3H mice; Table III, day 14 of study): 33%
% of mice entering anagen (C3H mice; Table III, day 15 of study): 33%
% of mice entering anagen (C3H mice; Table III, day 16 of study): 33%
% of mice entering anagen (C3H mice; Table III, day 17 of study): 20%
% of mice entering anagen (C3H mice; Table III, day 18 of study): 40%
% of mice entering anagen (C3H mice; Table III, day 21 of study): 80%
% of mice entering anagen (C3H mice; Table III, day 22 of study): 80%
% of mice entering anagen (C3H mice; Table III, day 23 of study): 80%
% of mice entering anagen (C3H mice; Table III, day 24 of study): 80%
% of mice entering anagen (C3H mice; Table III, day 25 of study): 80%
% of mice entering anagen (C3H mice; Table III, day 28 of study): 80%
% of mice entering anagen (C3H mice; Table III, day 29 of study): 80%

CC(C)(C)NC(=O)[C@H]1CC[C@H]2[C@@H]3CC[C@H]4NC(=O)C=C[C@]4(C)[C@H]3CC[C@]12C [Finasteride]
scalp hair growth [1]: did not improve scalp hair growth
